3 compounds from US8063047B2, “Pyridazine compounds and methods” (Centre National de la Recherche Scientifique (CNRS), priority 2004, dated 2011) can be followed below.

In series [1] the test system is IL-1β production by BV-2 mouse microglial cells stimulated with LPS. The series is described as follows: LPS-induced IL-1β production in BV-2 microglial cells. The class given is cell-based. The following applies: BV-2 cells, LPS 100 ng/ml, 16 hrs, cell lysates, MSD assay. As for the experimental part: (§1) BV-2 cells were treated with LPS (100 ng/ml) in the absence or presence of increasing concentrations of MW01-2-151WH or three structurally related analogs (MW01-3-202WH and MW01-3-173WH) for 16 hrs with levels of IL-1β and TNFα in cell lysates measured by the Meso-Scale Discovery electrochemiluminescent detection assay (See, e.g., Example 1, Materials and Methods). Data are the mean+/−SEM of triplicate determinations.
(§2) Biological investigations were done with compounds disclosed herein that were >95% homogenous as determined by HPLC/MS analysis. As part of a hierarchal, cell-based screening protocol, the compounds were screened for their ability to block IL-1β and TNFα production by BV-2 mouse microglial cells stimulated with LPS. The data for MWO1-2-1-151WH and the three structurally related analogs (MW01-3-202WH and MW01-3-173WH,) is shown (See, e.g., FIG. 2). Derivative groups that may be used to modify the compounds of the present invention can be found in U.S. Patent Application No. 20030176437 (herein incorporated by reference in its entirety for all purposes).
(§3) Cell Culture Assays. […] EL-1/3 and TNFa levels in cell lysates were determined by electro-chemiluminescent detection in a Meso-Scale Discovery (MSD) kit, as per the manufacturer's instructions.

The subject of series [2] is TNFα production by BV-2 mouse microglial cells stimulated with LPS. The series is described as follows: LPS-induced TNFα production in BV-2 microglial cells. The format is cell-based. The following applies: BV-2 cells, LPS 100 ng/ml, 16 hrs, cell lysates, MSD assay. The procedure: as §1, §2, §3
Series [3] concerns Accumulation of the NO metabolite, nitrite, BV-2 microglial cells. Kind of series: Nitrite (NO metabolite) accumulation in BV-2 microglial cells. The class given is cell-based, mouse. Particulars: BV-2 cells, concentrations up to 50 μM. The procedure: FIG. 4 A-C are graphs of the cell-based activity of MW01-2-151WH in BV-2 microglial cells. MW01-2-151WH is a concentration-dependent and selective inhibitor of proinflammatory cytokine production by activated glia. […] (C) Accumulation of the NO metabolite, nitrite, was not inhibited at concentrations up to 50 μM.

For series [4], the system named is Aβ-induced neuroinflammation and synaptic damage. The series is described as follows: Aβ1-42 ICV infusion mouse model, hippocampal endpoints. The class given is in vivo, C57B1/6 mice. The following applies: mice infused ICV with Aβ1-42; […] per day i.p. for 14 days. As for the experimental part:
FIG. 3A-F are graphs of MW01-2-151WH suppression of Aβ-induced neuroinflammation and synaptic damage. Hippocampal sections or extracts from vehicle-infused mice (control), Aβ-infused mice injected with solvent, and Aβ-infused mice injected with MW01-2-151 WH were evaluated for neuroinflammation by measurement of the levels of the pro-inflammatory cytokines IL-1β (A), TNFα(B), and S100B (C), and the number of GFAP-positive astrocytes, (D) and F4/80-positive microglia, (E), and evaluated for synaptic damage by analysis of the levels of the postsynaptic density protein 95 (PSD-95) (F). Data are from one of two independent experiments, and are the mean±SEM for 4-5 mice per experimental group.
In vivo Assays. Aβ-42 infusions and treatment of C57B1/6 mice with MW01-2-151WH were performed as previously described. Briefly, oligomeric […] was infused ICV for 28 days with a micro-osmotic pump. At post-operative day 21 and continuing for 14 days thereafter, mice were injected intraperitoneally once daily with either MW01-2-151WH (2.5 mg/kg per day) or solvent control (10% DMSO in saline). At post-operative day 60, mice were perfused and sacrificed, and hippocampal endpoints measured as previously described. […]

Another series concerns liver, lungs, and kidney. The series is described as follows: Graded dose, acute toxicity assay (histology of liver, lung, kidney). The class given is in vivo. The following applies: mice, oral gavage once daily for 3 days, up to 50 mg/kg. The procedure:
Vehicle (panels A,C,E) or MW01-2-151 WH (panels B,D,F) was orally administered (gavage) to mice daily for three days at 50 mg/kg (20-fold greater than a therapeutic dose, described in Materials and Methods).
Graded dose, acute toxicity assays Vehicle (30% DMSO) or MW01-2-151WH (3.1, 12.5 or 50 mg/kg) in 0.5% carboxymethylcellulose was administered by oral gavage once daily for 3 days. On the 4th day, mice were anesthetized with pentobarbital, intubated and the lungs were inflated with an air containing syringe. The mice were perfused through the right ventricle and the lungs, liver and kidneys were then harvested and fixed in 4% paraformaldehyde for histology. Paraffin embedded hematoxylin & eosin stained sections of each organ were prepared by standard techniques.

Regarding “5,6-dihydro-3-(4-(pyrimidin-2-yl)piperazin-1-yl)benzo[h]cinnoline [MW01-2-151WH]”, the “inhibition of LPS-induced IL-1β production” value is “Concentration-dependent inhibition” in series [1] and “suppressed” in series [1] (listed as MW01-2-151 WH). For the same compound, the “inhibition of LPS-induced TNFα production” value in series [2] is on record as “Concentration-dependent inhibition”; in series [2] (listed as MW01-2-151 WH), “suppressed”. Further, the “Accumulation of the NO metabolite, nitrite” value in series [3] is on record as “not inhibited”. In addition, the “number of F4/80 positive microglia” value in series [4] is listed as “suppressed”. In addition, the “tissue toxicity (histology of liver, lung, kidney), acute” value with liver, lungs, and kidney was “No tissue toxicity was observed”; in the series with liver, lungs, and kidney (listed as MW01-2-151 WH), “no histological evidence of toxicity”.
With “5,6-dihydro-3-(4-phenylpiperazin-1-yl)benzo[h]cinnoline [MW01-3-173WH]”, the “inhibition of LPS-induced IL-1β production” value in series [1] was “somewhat less suppressive activity”. For the same compound, the “inhibition of LPS-induced TNFα production” value in series [2] was “somewhat less suppressive activity”.
Consider `c1ccc(N2CCN(c3cc4c(nn3)-c3ccccc3CC4)CC2)nc1` [MW01-3-202WH, 5,6-dihydro-3-(4-(pyridm-2-yl)piperazin-1-yl)benzo[h]cinnoline], for which the “inhibition of LPS-induced IL-1β production” value in series [1] is given as “somewhat less suppressive activity”. For the same compound, in series [2], the “inhibition of LPS-induced TNFα production” value is “somewhat less suppressive activity”.
